From article PMC7707092, “Discovery and characterization of ORM‐11372, a novel inhibitor of the sodium‐calcium exchanger with positive inotropic activity” (British Journal of Pharmacology, 2020)
In brackets after ≈: the same amount, converted by molar mass. Several values for one entry are separate records, joined by “and”; a condition that tells them apart may be missing. Identical values can stand only once. Like-named read-outs stand apart in the source and are kept apart here.

Columns and labels:
human NCX 1.1 = molecular target: T1, human NCX 1.1 (Homo sapiens, UniProt P32418); test: Fluorescence screening assay for hNCX 1.1 inhibition (reverse mode, Sf9 cells); type: cell-based; conditions: for IC50: Sf9 cells expressing human NCX1.1, reverse mode, fluorescence, n=3 assays
T1 construct: expressed in transfected cells
Method: Spodoptera frugiperda (Sf9; RRID:CVCL_0549) cells are widely used for the transient and stable expression of recombinant proteins. Here, Sf9 cells were stably transfected with human NCX 1.1 and maintained in spinner flasks with insect cell culture medium (TNM‐FH), supplemented with 10% FBS, antibiotic–antimycotic solution, and 50 μg·ml^−1 of blasticidin at 28°C in a non‐humidified, CO2‐free atmosphere. The Sf9 cell suspension was subcultured three times a week.
NCX reverse mode activity was stimulated via a 50% dilution of the extracellular Na^+ level using the internal pipettor of FLEXstation, a fluorescence imaging plate reader (Molecular Devices, USA), while simultaneously monitoring intracellular calcium levels. After dilution, the concentration of other ions remained the same, but Na^+ concentration was diluted to the half of original concentration of 172 to 86 mM. For Sf9 insect cells, normal extracellular Na^+ ion concentration is 172 mM. Typically, 50 μl of a solution containing 150,000–200,000 Sf9–NCX cells was loaded onto each well of a 96‐well plate. Cells were preincubated with the intracellular calcium dye Fluo‐4 and Fluo‐6, and the concentrations of the test compound (three replicates) were determined for about 1 h at room temperature before experimentation. The extracellular solution contained (in mM) 172 NaCl, 10 HEPES, 1 CaCl2, 1.2 MgCl2, 0.33 NaH2PO4, 5 glucose, and 5 probenecid. The pH was adjusted to 7.4 with NaOH. The extracellular Na^+ was diluted by the addition of a Na^+‐free extracellular solution (containing in mM: 147 N‐methyl‐D‐glucamine (NMDG), 10 HEPES, 1 CaCl2, 1.2 MgCl2, 0.33 NaH2PO4, and 5 glucose with the pH adjusted by HCl to 7.4)‐induced robust and reproducible elevation of intracellular calcium. The osmolarity of both solutions was adjusted to 340–355 mOsm in order to match the Sf9 cell media osmolarity. In each plate, the IC50 determination for each test compound was based on relative fluorescence changes in comparison with control and 5‐mM nickel acetate‐induced NCX inhibition.

L‐type calcium channel = L‐type calcium channel inhibition, fluorescence assay in IMR‐32 cells; type: cell-based, human; conditions: KCl depolarization, n=4 assays, read-out: L‐type Ca^2+ IC50
Method: CHO cells stably expressing either hERG1a (KV11.1) channels (KCNH2; RRID:CVCL_H512) or human 5‐HT2B receptors were cultured at 37°C in a 5% CO2/95% air atmosphere in the Ham's Nutrient Mixture F‐12 (HAM F‐12) medium supplemented with 10% FBS (heat inactivated), 100 μg·ml^−1 of hygromycin B (Invitrogen), and 100 μg·ml^−1 of geneticin or 100 IU·ml^−1 of penicillin and 100 IU·ml^−1 of streptomycin, 25‐mM HEPES, 500 μg·ml^−1 of geneticin, and 250 μg·ml^−1 of Zeocin®. Adhered cells were detached using either Detachin® solution or trypsin and replated twice a week. HEK 293 (RRID:CVCL_0045) and IMR‐32 cells (CCL‐127; RRID:CVCL_0346) were cultured similarly but maintained instead in DMEM, supplemented with 10% FBS (heat inactivated), 100 IU·ml^−1 of penicillin and 100 IU·ml^−1 of streptomycin, and 25‐mM HEPES, and in the case of the IMR‐32 cell line, with minimum essential medium (MEM) non‐essential amino acids. IMR‐32 cells are derived from a human neuroblastoma and endogenously express L‐type (CaV1.x) calcium channel (Sher, Gotti, Pandiella, Madeddu, & Clementi, 1988).
Undifferentiated IMR‐32 cells were harvested, centrifuged, and resuspended in a probenecid‐Ringer solution consisting (in mM) 150 NaCl, 3 KCl, 1.2 MgCl2, 1 CaCl2, 20 HEPES, 5 glucose and 2.5 probenecid (pH 7.4 adjusted with NaOH, osmolarity 320–324 mOsm). We added 0.04% Pluronic F‐127 and Fluo‐4 to this solution, and after incubating the cells for 30 min at room temperature, these additives were removed from the probenecid‐Ringer solution by centrifugation and resuspension. The cell suspension was pipetted (250,000 cells in 75 μl per well) into a 96‐well plate, into which the test compound (75 μl per well at […] the final concentration; five concentrations with eight replicates) had already been added. The plate was centrifuged once (5 min, at 287 x g) to ensure that the cells were moved to the bottom of the wells. FLEXstation was then used to measure the increase in intracellular calcium at 37°C, following depolarization, which was induced by the addition (50 μl per well) of a KCl‐Ringer solution containing (in mM) 200 KCl, 20 CaCl2, 1.2 MgCl2, 20 HEPES and 2.5 probenecid respectively (pH adjusted to 7.4 with KOH, with an osmolarity of 320–324 mOsm).

Solubility = type: physicochemical
MAO B = molecular target: T2, MAO B (Homo sapiens, UniProt P27338); test: MAO B inhibition (Table S2); type: biochemical
T2 sequence (P27338 1-520): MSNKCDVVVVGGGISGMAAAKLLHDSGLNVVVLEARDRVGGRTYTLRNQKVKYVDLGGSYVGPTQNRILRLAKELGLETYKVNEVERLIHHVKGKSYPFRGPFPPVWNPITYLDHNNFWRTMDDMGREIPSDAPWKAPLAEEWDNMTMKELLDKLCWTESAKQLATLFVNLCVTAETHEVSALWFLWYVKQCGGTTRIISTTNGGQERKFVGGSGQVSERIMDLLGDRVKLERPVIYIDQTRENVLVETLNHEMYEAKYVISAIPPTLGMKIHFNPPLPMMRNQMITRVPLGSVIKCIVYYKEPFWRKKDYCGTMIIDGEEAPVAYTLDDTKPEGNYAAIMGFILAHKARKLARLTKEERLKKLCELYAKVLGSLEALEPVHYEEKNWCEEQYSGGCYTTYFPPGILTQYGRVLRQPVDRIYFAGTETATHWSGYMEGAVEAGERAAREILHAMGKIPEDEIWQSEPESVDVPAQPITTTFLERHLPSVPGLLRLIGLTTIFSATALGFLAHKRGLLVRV

| SMILES | IC50 (human NCX 1.1) | IC50 (L‐type calcium channel) [nM] | Solubility class (Solubility; pH 7.4 phosphate buffer) | MAO B inhibition (MAO B; 10 μM) [%] | potency as NCX inhibitor relative to SEA0400 (human NCX 1.1) | solubility (Solubility; 5% glucose solution, saline or isotonic, 5% glucose used for in vivo dosing, read-out: Solubility in 5% glucose solution) [µg/mL] | solubility (Solubility; phosphate buffer, pH 7.4, aqueous buffer, pH 7.4 phosphate buffer, read-out: Solubility) [µg/mL] | solubility (Solubility; phosphate buffer, pH 7.4, aqueous buffer, pH 7.4 phosphate buffer, read-out: Solubility class) [µg/mL] | solubility (Solubility; saline, saline or isotonic, saline used for in vivo dosing, read-out: Solubility in saline) [µg/mL] | inhibition at 10 µM (MAO B; 10 μM) [%] | solubility (Solubility; pH 7.4 phosphate buffer) | Solubility class (Solubility; pH 7.4 phosphate buffer, listed as SEA 0400) | IC50 (MAO B) [nM] |
| --- | --- | --- | --- | --- | --- | --- | --- | --- | --- | --- | --- | --- | --- |
| O=C(CN1CCC(O)CC1)Nc1ccc(Oc2ccc3c(c2)CCC(c2ccccc2)O3)nc1 (stereo not drawn) [ORM-10962] | 197 nM | 11400 | Moderate (moderate solubility between 10-100 µg/ml) | 52 | – | – | – | – | – | – | – | – | – |
| Nc1cccc(-c2ccc(CNc3ccc(F)cc3)o2)c1 [ORM‐11372] | 6.2 nM and 6 nM | 6100 | – | – | more than 10 times | 5400 (≈ 19.1 mM) | 10 to 100 (≈ 0.0354 to 0.354 mM) | 10 to 100 (≈ 0.0354 to 0.354 mM) | 5300 (≈ 18.8 mM) | 77 | – | – | – |
| CCOc1ccc(Oc2ccc(OCc3cc(F)ccc3F)cc2)c(N)c1 [SEA0400, reference compound] | 376 nM | 3400 | insoluble | – | – | – | – | – | – | – | less than 10 μg·ml^−1 | Insoluble (insoluble less than 10 µg/ml) | 176 |
